As usually defined, the pEC50 is the negative decadic logarithm of the EC50, by convention in mol/L. A lower pEC50 goes with a high EC50.

Experimental findings from patent US8202856B2 (Merck Serono SA, priority 2007, dated 2012) are described below.

pEC50: −log10 of the molar value. Where a name gives a salt, the structure may show the parent alone.

The target of the test is S1P1 receptor (Homo sapiens, UniProt P21453). As to the kind of experiment: 35S-GTPγS binding, membranes from CHO cells expressing S1P1. To be noted: CHO cell membranes expressing S1P1. The class given is biochemical. On the procedure: Receptor binding assay: Membranes were prepared from CHO cells expressing S1P1 or S1P3 for use in ligand and 35S-GTPTS binding studies. Cells were suspended in 50 mM TRIS, pH 7.4, 2 mM EDTA, 250 mM Sucrose (buffer A) and 1× Complete protease inhibitor cocktail (Roche), and disrupted at 4° C. by nitrogen decompression using a cell disruption bomb (Parr Instrument). Following centrifugation at 1000 RPM for 10 min at 4° C., the supernatant was suspended in buffer A and centrifuged again at 19000 RPM for 60 min at 4° C. The pellet was then suspended in 10 mM HEPES, pH 7.4, 1 mM EDTA, 250 mM Sucrose (Buffer B), and 1× Complete EDTA-free protease inhibitor cocktail and homogenized using a potter. Membranes were flash frozen in liquid nitrogen and stored at −80° C. [33P]sphingosine 1-phosphate (3000 Ci/mmol; American Radiolabeled Chemicals, Inc.) was added to test compounds in DMSO. Membranes and WGA SPA beads (GE Healthcare) were added to give a final volume of 100 μl in 96-well plates with assay concentrations of […] [33P]sphingosine 1-phosphate (respectively for S1P1 or S1P3), 50 mM HEPES, pH 7.5, 5 mM MgCl2, 100 mM NaCl, 0.4% fatty acid-free BSA, 1-5 μg/well of proteins and 100 μg/well of WGA SPA beads. Binding was performed for 60 min at room temperature on a shaker and bound radioactivity was measured on a PerkinElmer 1450 MicroBeta counter. Specific binding was calculated by subtracting remaining radioactivity in the presence of 1000-fold excess of unlabeled S1P. Binding data were analyzed using the GraphPad Prism program.
Sequence of S1P1 receptor (P21453 whole entry): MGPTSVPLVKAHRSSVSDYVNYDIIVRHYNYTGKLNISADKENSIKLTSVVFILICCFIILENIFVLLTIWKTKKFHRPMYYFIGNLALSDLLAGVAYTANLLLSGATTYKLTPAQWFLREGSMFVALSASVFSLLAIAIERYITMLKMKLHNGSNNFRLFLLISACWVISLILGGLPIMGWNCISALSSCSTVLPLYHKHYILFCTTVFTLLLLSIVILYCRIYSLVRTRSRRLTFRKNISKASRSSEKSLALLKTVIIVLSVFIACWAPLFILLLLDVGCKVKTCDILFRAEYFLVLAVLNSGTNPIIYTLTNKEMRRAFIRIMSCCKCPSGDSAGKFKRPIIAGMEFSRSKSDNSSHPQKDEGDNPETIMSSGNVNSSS
Measurements of ^35S-GTPγS Binding: Membranes (1 to 10 μg protein) prepared as described above, were incubated in 96-well Scintiplates (PerkinElmer) with test compounds diluted in DMSO, in 180 μl of 20 mM HEPES, pH 7.4, 10 mM MgCl2, 2 μg/well Saponin, 0.2% fatty acid free BSA (Assay buffer), 140 mM NaCl and 1.7 μM GDP. The assay was initiated with the addition of 20 μl of 1.5 nM [35S]-GTPγS (1100 Ci/mmol; GE Healthcare) in assay buffer. After 60 min incubation at 30° C. on a shaker, plates were centrifuged for 10 min at 2000 RPM. Supernatant was discarded and membrane bound radioactivity was measured on a PerkinElmer 1450 MicroBeta counter. Triplicate samples were averaged and expressed as response relative to S1P activation in absence of compound (n=2).
On the technique in general: GTPγS is a poorly hydrolysed GTP analogue; its binding reports G protein activation.
The compound `Fc1ccccc1-n1nnc(-c2nc(-c3cccc(C(F)(F)F)c3)no2)c1-c1ccncc1` [Example 103, 4-(1-(2-fluorophenyl)-4-{3-[3-(trifluoromethyl)phenyl]-1,2,4-oxadiazol-5-yl}-1H-1,2,3-triazol-5-yl)pyridine] had a negative logarithm of the EC50 (pEC50) of 7.77.
The value for `Fc1ccccc1-n1nnc(-c2nc(-c3ccc4c(c3)CNCC4)no2)c1-c1ccncc1` [Example 105, 7-{5-[1-(2-fluorophenyl)-5-pyridin-4-yl-1H-1,2,3-triazol-4-yl]-1,2,4-oxadiazol-3-yl}-1,2,3,4-tetrahydroisoquinoline] was 7.59.
Under `Fc1ccccc1-n1nnc(-c2nc(-c3ccc(CN4CCC(F)(F)CC4)cc3)no2)c1-c1ccncc1` [Example 161] stands 6.26.
In turn, `CC(C)(NCc1ccc(-c2noc(-c3nnn(-c4ccccc4F)c3-c3ccncc3)n2)cc1)C(=O)O` [Example 174, N-(4-{5-[1-(2-fluorophenyl)-5-pyridin-4-yl-1H-1,2,3-triazol-4-yl]-1,2,4-oxadiazol-3-yl}benzyl)-2-methylalanine] showed a pEC50 of 6.79.
On to `CC(C)(C)OC(=O)NCc1ccc(-c2noc(-c3nnn(-c4ccccc4F)c3-c3ccncc3)n2)cc1` [Example 74, tert-butyl (4-{5-[1-(2-fluorophenyl)-5-pyridin-4-yl-1H-1,2,3-triazol-4-yl]-1,2,4-oxadiazol-3-yl}benzyl)carbamate], for which the pEC50 was 5.96. Compared with the last compound, the pEC50 is 0.83 log units lower.
Under `Fc1ccccc1-n1nnc(-c2nc(-c3cccc(Br)c3)no2)c1-c1ccncc1` [Example 100, 4-[4-[3-(3-bromophenyl)-1,2,4-oxadiazol-5-yl]-1-(2-fluorophenyl)-1H-1,2,3-triazol-5-yl]pyridine] stands 7.74; under `COCc1c(-c2nc(-c3ccc(N)nc3)no2)nnn1-c1ccccc1F` [Example 123, 5-{5-[1-(2-fluorophenyl)-5-(methoxymethyl)-1H-1,2,3-triazol-4-yl]-1,2,4-oxadiazol-3-yl}pyridin-2-amine], 6.32; under `O=C(O)[C@@H]1CCCN1Cc1ccc(-c2noc(-c3nnn(-c4ccccc4F)c3-c3ccncc3)n2)cc1` [Example 159, 1-(4-{5-[1(2-fluorophenyl)-5-pyridin-4-yl-1H-1,2,3-triazol-4-yl]-1,2,4-oxadiazol-3-yl}benzyl)-L-proline], 6.24.
The value for `Fc1ccccc1-n1nnc(-c2nc(-c3ccc(Cn4ccnc4)cc3)no2)c1-c1ccncc1` [Example 170, 4-(1-(2-fluorophenyl)-4-{3-[4-(1H-imidazol-1-ylmethyl)phenyl]-1,2,4-oxadiazol-5-yl}-1H-1,2,3-triazol-5-yl)pyridine] was 8.40.
Under `Fc1ccccc1-n1nnc(-c2nc(-c3ccc(CNC4CC4)cc3)no2)c1-c1ccncc1` [Example 164, N-(4-{5-[1-2-fluorophenyl)-5-pyridin-4-yl-1H-1,2,3-triazol-4-yl]-1,2,4-oxadiazol-3-yl}benzyl)cyclopropanamine formate] stands 7.57.
With `Fc1ccccc1-n1nnc(-c2nc(-c3cccc(CN4CCC4)c3)no2)c1-c1ccncc1` [Example 148, 4-[4-{3-[3-(azetidin-1-ylmethyl)phenyl]-1,2,4-oxadiazol-5-yl}-1-(2-fluorophenyl)-1H-1,2,3-triazol-5-yl]pyridine formate], the pEC50 is 6.29.
Take `CN(CC(=O)O)Cc1ccc(-c2noc(-c3nnn(-c4ccccc4F)c3-c3ccncc3)n2)cc1` [Example 130, N-(4-{5-[1-(2-fluorophenyl)-5-pyridin-4-yl-1H-1,2,3-triazol-4-yl]-1,2,4-oxadiazol-3-yl}benzyl)-N-methylglycine]: the pEC50 was 7.35.
`OCCc1ccc(-c2noc(-c3nnn(-c4ccccc4F)c3-c3ccncc3)n2)cc1` [Example 150, 2-(4-{5-[1(2-fluorophenyl)-5-pyridin-4-yl-1H-1,2,3-triazol-4-yl]-1,2,4-oxadiazol-3-yl}phenyl)ethanol] showed a pEC50 of 7.37.
Under `Fc1ccccc1-n1nnc(-c2nc(-c3cccnc3)no2)c1-c1ccncc1` [Example 42, 3-{5-[1-(2-fluorophenyl)-5-pyridin-4-yl-1H-1,2,3-triazol-4-yl]-1,2,4-oxadiazol-3-yl}pyridine] stands 7.38; under `OCC1CN(Cc2ccc(-c3noc(-c4nnn(-c5ccccc5F)c4-c4ccncc4)n3)cc2)CCO1` (stereo not shown) [Example 143, [4-(4-{5-[1-(2-fluorophenyl)-5-pyridin-4-yl-1H-1,2,3-triazol-4-yl]-1,2,4-oxadiazol-3-yl}benzyl)morpholin-2-yl]methanol], 6.93; under `Fc1ccccc1-n1nnc(-c2nc(-c3ccc4[nH]cnc4c3)no2)c1-c1ccncc1` [Example 155, 5-{5-[1-(2-fluorophenyl)-5-pyridin-4-yl-1H-1,2,3-triazol-4-yl]-1,2,4-oxadiazol-3-yl}-1H-benzimidazole], 6.60.
Under `OC1CCN(Cc2cccc(-c3noc(-c4nnn(-c5ccccc5F)c4-c4ccncc4)n3)c2)C1` (stereo not shown) [Example 134, 1-(3-{5-[1-(2-fluorophenyl)-5-pyridin-4-yl-1H-1,2,3-triazol-4-yl]-1,2,4-oxadiazol-3-yl}benzyl)pyrrolidin-3-ol] stands 6.12; under `CC(=O)N1CCC(c2noc(-c3nnn(-c4ccccc4F)c3-c3ccncc3)n2)CC1` [Example 55, 4-[4-[3-(1-acetylpiperidin-4-yl)-1,2,4-oxadiazol-5-yl]-1-(2-fluorophenyl)-1H-1,2,3-triazol-5-yl]pyridine], 5.85; under `Fc1ccccc1-n1nnc(-c2nc(-c3ccc4c(c3)CCN4)no2)c1-c1ccncc1` [Example 156, 5-{5-[1-(2-fluorophenyl)-5-pyridin-4-yl-1H-1,2,3-triazol-4-yl]-1,2,4-oxadiazol-3-yl}indoline hydrochloride], 7.57.
`Fc1ccccc1-n1nnc(-c2nc(-c3ccc(CN4CC[C@@H](F)C4)cc3)no2)c1-c1ccncc1` [Example 160, 4-{1-(2-fluorophenyl)-4-[3-(4-{[(3R)-3-fluoropyrrolidin-1-yl]methyl}phenyl)-1,2,4-oxadiazol-5-yl]-1H-1,2,3-triazol-5-yl}pyridine]: the pEC50 is 7.15. This pEC50 lies 0.42 log units lower than the previous one.
The value for `COCCNCc1cccc(-c2noc(-c3nnn(-c4ccccc4F)c3-c3ccncc3)n2)c1` [Example 147, N-(3-{5-[1-(2-fluorophenyl)-5-pyridin-4-yl-1H-1,2,3-triazol-4-yl]-1,2,4-oxadiazol-3-yl}benzyl)-2-methoxyethanamine] was 6.24; that for `COc1ccc(-c2noc(-c3nnn(-c4ccccc4F)c3-c3ccccn3)n2)cc1` [Example 57, 2-{1-(2-fluorophenyl)-4-[3-(4-methoxyphenyl)-1,2,4-oxadiazol-5-yl]-1H-1,2,3-triazol-5-yl}pyridine] was 6.02.
Under `Fc1ccccc1-n1nnc(-c2nc(-c3ccncc3)no2)c1C1CCCC1` [Example 72, 4-{5-[5-cyclopentyl-1-(2-fluorophenyl)-1H-1,2,3-triazol-4-yl]-1,2,4-oxadiazol-3-yl}pyridine] stands 6.01; under `CN(C)Cc1ccc(-c2noc(-c3nnn(-c4ccccc4F)c3-c3ccncc3)n2)cc1` [Example 131, 1-(4-{5-[1-(2-fluorophenyl)-5-pyridin-4-yl-1H-1,2,3-triazol-4-yl]-1,2,4-oxadiazol-3-yl}phenyl)-N,N-dimethylmethanamine], 7.96; under `Fc1ccccc1-n1nnc(-c2nc(-c3ccc4c(c3)NCC4)no2)c1-c1ccncc1` [Example 157, 6-{5-[1-(2-fluorophenyl)-5-pyridin-4-yl-1H-1,2,3-triazol-4-yl]-1,2,4-oxadiazol-3-yl}indoline], 6.66.
The compound `Fc1ccccc1-n1nnc(-c2nc(-c3ccc(C(F)(F)F)cc3)no2)c1-c1ccncc1` [Example 109, 4-(1-(2-fluorophenyl)-4-{3-[4-(trifluoromethyl)phenyl]-1,2,4-oxadiazol-5-yl}-1H-1,2,3-triazol-5-yl)pyridine] had a negative logarithm of the EC50 (pEC50) of 6.40.
Under `Cc1ccc(-c2noc(-c3nnn(-c4ccccc4F)c3-c3ccncc3)n2)cc1` [Example 107, 4-{1-(2-fluorophenyl)-4-[3-(4-methylphenyl)-1,2,4-oxadiazol-5-yl]-1H-1,2,3-triazol-5-yl}pyridine] stands 7.31; under `Fc1ccccc1-n1nnc(-c2nc(-c3ccc(CN4CC[C@H](F)C4)cc3)no2)c1-c1ccncc1` [Example 167, 4-{1-(2-fluorophenyl)-4-[3-(4-{[(3S)-3-fluoropyrrolidin-1-yl]methyl}phenyl)-1,2,4-oxadiazol-5-yl]-1H-1,2,3-triazol-5-yl}pyridine], 7.82.
